Holding throughout (assay): relative viability (nuclei count vs DMSO), 5 days (fraction); higher = more cells survive
Compound in the experiment “Venetoclax + Bortezomib”: CC1(C)CCC(CN2CCN(c3ccc(C(=O)NS(=O)(=O)c4ccc(NCC5CCOCC5)c([N+](=O)[O-])c4)c(Oc4cnc5[nH]ccc5c4)c3)CC2)=C(c2ccc(Cl)cc2)C1 [Venetoclax] + CC(C)C[C@H](NC(=O)[C@H](Cc1ccccc1)NC(=O)c1cnccn1)B(O)O [Bortezomib] (partner 0.002 µM)
Put shortly:
(§1)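 Medians of duplicate plates are given as relative viability. That measure is the nuclei count in treated wells divided by the count in vehicle wells. Counts were taken on 4× images of lung cancer cell lines in 1536-well plates, 5 days after pin-tool dosing the day after seeding with one drug alone or a fixed anchor-drug dose plus five library-drug doses (not always all listed) in √10 steps.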

Compound in the experiment “Venetoclax + Crizotinib”: CC1(C)CCC(CN2CCN(c3ccc(C(=O)NS(=O)(=O)c4ccc(NCC5CCOCC5)c([N+](=O)[O-])c4)c(Oc4cnc5[nH]ccc5c4)c3)CC2)=C(c2ccc(Cl)cc2)C1 [Venetoclax] + C[C@@H](Oc1cc(-c2cnn(C3CCNCC3)c2)cnc1N)c1c(Cl)ccc(F)c1Cl [Crizotinib] (partner 1 µM)
A digest of the protocol:
as §1

Compound in the experiment “Selumetinib + Bortezomib”: Cn1cnc2c(F)c(Nc3ccc(Br)cc3Cl)c(C(=O)NOCCO)cc21 [Selumetinib] + CC(C)C[C@H](NC(=O)[C@H](Cc1ccccc1)NC(=O)c1cnccn1)B(O)O [Bortezomib] (partner 0.002 µM)
Put shortly:
as §1

Compound in the experiment “Selumetinib + AZD7762”: Cn1cnc2c(F)c(Nc3ccc(Br)cc3Cl)c(C(=O)NOCCO)cc21 [Selumetinib] + NC(=O)Nc1cc(-c2cccc(F)c2)sc1C(=O)N[C@H]1CCCNC1 [AZD7762] (partner 0.2 µM)
Put shortly: as §1

On to NCI-H520, for which the relative viability is 0.657 with Venetoclax + Bortezomib (first compound 0.01 µM); 0.708 in the experiment with Venetoclax + Bortezomib (first compound 0.03162 µM); 0.431 with Venetoclax + Bortezomib (first compound 0.1 µM); 0.628 with Venetoclax + Bortezomib (first compound 0.3162 µM); 0.494 with Venetoclax + Bortezomib (first compound 1 µM); 0.769 in the experiment with Venetoclax + Crizotinib (first compound 0.01 µM). The relative viability with Venetoclax + Crizotinib (first compound 0.03162 µM) was determined as 0.698; with Venetoclax + Crizotinib (first compound 0.1 µM) it was 0.658; with Venetoclax + Crizotinib (first compound 0.3162 µM) it was 0.835; in the experiment with Venetoclax + Crizotinib (first compound 1 µM), 0.698; with Selumetinib + Bortezomib (first compound 0.02 µM), 0.635; in the experiment with Selumetinib + Bortezomib (first compound 0.06325 µM), 0.47. Further, the figures for the relative viability with Selumetinib + Bortezomib (first compound 0.2 µM) and with Selumetinib + Bortezomib (first compound 0.6325 µM) were 0.498 and 0.575, respectively.
In the case of NCI-H1755, the relative viability in the experiment with Venetoclax + Bortezomib (first compound 0.01 µM) came to 0.993; in the experiment with Venetoclax + Bortezomib (first compound 0.03162 µM), 1.01; with Venetoclax + Bortezomib (first compound 0.1 µM), 0.911; in the experiment with Venetoclax + Bortezomib (first compound 0.3162 µM), 0.965; with Venetoclax + Bortezomib (first compound 1 µM), 0.943; in the experiment with Venetoclax + Crizotinib (first compound 0.01 µM), 0.769. In addition, the relative viability in the experiment with Venetoclax + Crizotinib (first compound 0.03162 µM) stood at 0.885; with Venetoclax + Crizotinib (first compound 0.1 µM) it was 0.872; in the experiment with Venetoclax + Crizotinib (first compound 0.3162 µM), 0.863; with Venetoclax + Crizotinib (first compound 1 µM) it was 0.779; in the experiment with Selumetinib + Bortezomib (first compound 0.02 µM) it was 0.952; with Selumetinib + Bortezomib (first compound 0.06325 µM) it was 0.859. The relative viability with Selumetinib + Bortezomib (first compound 0.2 µM) came to 0.834; with Selumetinib + Bortezomib (first compound 0.6325 µM) it was 0.914; with Selumetinib + AZD7762 (first compound 0.02 µM), 0.522; with Selumetinib + AZD7762 (first compound 0.06325 µM), 0.352; with Selumetinib + AZD7762 (first compound 0.2 µM), 0.393; in the experiment with Selumetinib + AZD7762 (first compound 0.6325 µM), 0.451.
Consider NCI-H1975, for which the relative viability with Venetoclax + Bortezomib (first compound 0.01 µM) amounted to 0.424; in the experiment with Venetoclax + Bortezomib (first compound 0.03162 µM), 0.393; with Venetoclax + Bortezomib (first compound 0.1 µM), 0.35; with Venetoclax + Bortezomib (first compound 0.3162 µM), 0.344; with Venetoclax + Bortezomib (first compound 1 µM) it was 0.299; in the experiment with Venetoclax + Crizotinib (first compound 0.01 µM), 1.13. Moreover, the relative viability with Venetoclax + Crizotinib (first compound 0.03162 µM) was determined as 0.907; in the experiment with Venetoclax + Crizotinib (first compound 0.1 µM), 0.974; with Venetoclax + Crizotinib (first compound 0.3162 µM) it was 0.879; with Venetoclax + Crizotinib (first compound 1 µM), 0.867; with Selumetinib + Bortezomib (first compound 0.02 µM) it was 0.324; with Selumetinib + Bortezomib (first compound 0.06325 µM) it was 0.282. The relative viability with Selumetinib + Bortezomib (first compound 0.2 µM) is 0.262; with Selumetinib + Bortezomib (first compound 0.6325 µM) it was 0.221; with Selumetinib + AZD7762 (first compound 0.02 µM), 0.69; with Selumetinib + AZD7762 (first compound 0.06325 µM) it was 0.599; in the experiment with Selumetinib + AZD7762 (first compound 0.2 µM), 0.662; with Selumetinib + AZD7762 (first compound 0.6325 µM), 0.527.
As to Calu-6, the relative viability in the experiment with Venetoclax + Bortezomib (first compound 0.01 µM) turned out to be 0.981; with Venetoclax + Bortezomib (first compound 0.03162 µM) it was 0.972; with Venetoclax + Bortezomib (first compound 0.1 µM), 1.02; with Venetoclax + Bortezomib (first compound 0.3162 µM), 1.08; in the experiment with Venetoclax + Bortezomib (first compound 1 µM), 1.05; with Venetoclax + Crizotinib (first compound 0.01 µM) it was 0.79. Moreover, the relative viability with Venetoclax + Crizotinib (first compound 0.03162 µM) is 0.798; with Venetoclax + Crizotinib (first compound 0.1 µM), 0.794; with Venetoclax + Crizotinib (first compound 0.3162 µM) it was 0.776; with Venetoclax + Crizotinib (first compound 1 µM) it was 0.72; in the experiment with Selumetinib + Bortezomib (first compound 0.02 µM) it was 1.07; with Selumetinib + Bortezomib (first compound 0.06325 µM), 0.792. For the same cell line, the relative viability with Selumetinib + Bortezomib (first compound 0.2 µM) was 0.648; with Selumetinib + Bortezomib (first compound 0.6325 µM), 0.558.
Turning to SK-LU-1, the relative viability with Venetoclax + Bortezomib (first compound 0.01 µM) stood at 0.937; with Venetoclax + Bortezomib (first compound 0.03162 µM), 1.19; with Venetoclax + Bortezomib (first compound 0.1 µM), 1.24; with Venetoclax + Bortezomib (first compound 0.3162 µM), 1.34; in the experiment with Venetoclax + Bortezomib (first compound 1 µM) it was 1.08; with Venetoclax + Crizotinib (first compound 0.01 µM), 0.814. In addition, the relative viability with Venetoclax + Crizotinib (first compound 0.03162 µM) was 0.972; with Venetoclax + Crizotinib (first compound 0.1 µM), 0.763; with Venetoclax + Crizotinib (first compound 0.3162 µM) it was 0.983; in the experiment with Venetoclax + Crizotinib (first compound 1 µM), 0.849; with Selumetinib + Bortezomib (first compound 0.02 µM) it was 1.25; with Selumetinib + Bortezomib (first compound 0.06325 µM), 1.28. The relative viability in the experiment with Selumetinib + Bortezomib (first compound 0.2 µM) worked out at 0.918; with Selumetinib + Bortezomib (first compound 0.6325 µM), 0.715.
On to EMC-BAC-2, for which the relative viability with Venetoclax + Bortezomib (first compound 0.01 µM) stood at 1.02; with Venetoclax + Bortezomib (first compound 0.03162 µM), 1.05; with Venetoclax + Bortezomib (first compound 0.1 µM), 0.958; with Venetoclax + Bortezomib (first compound 0.3162 µM), 1.02; in the experiment with Venetoclax + Bortezomib (first compound 1 µM), 1.04; with Venetoclax + Crizotinib (first compound 0.01 µM) it was 0.687. In addition, the relative viability in the experiment with Venetoclax + Crizotinib (first compound 0.03162 µM) was 0.774; with Venetoclax + Crizotinib (first compound 0.1 µM), 0.779; with Venetoclax + Crizotinib (first compound 0.3162 µM), 0.775; with Venetoclax + Crizotinib (first compound 1 µM), 0.71; with Selumetinib + Bortezomib (first compound 0.02 µM), 1.06; in the experiment with Selumetinib + Bortezomib (first compound 0.06325 µM) it was 1.07. Further, the relative viability with Selumetinib + Bortezomib (first compound 0.2 µM) is 1.01; with Selumetinib + Bortezomib (first compound 0.6325 µM), 0.999; with Selumetinib + AZD7762 (first compound 0.02 µM), 1.16; with Selumetinib + AZD7762 (first compound 0.06325 µM) it was 1.11; with Selumetinib + AZD7762 (first compound 0.2 µM) it was 0.913; with Selumetinib + AZD7762 (first compound 0.6325 µM) it was 1.08.
Take LK-2: the relative viability with Venetoclax + Crizotinib (first compound 0.01 µM) came to 0.192; in the experiment with Venetoclax + Crizotinib (first compound 0.03162 µM), 0.214; with Venetoclax + Crizotinib (first compound 0.1 µM) it was 0.262; with Venetoclax + Crizotinib (first compound 0.3162 µM), 0.248; with Venetoclax + Crizotinib (first compound 1 µM) it was 0.253; in the experiment with Selumetinib + AZD7762 (first compound 0.02 µM), 0.474. Further, the values for the relative viability with Selumetinib + AZD7762 (first compound 0.06325 µM), with Selumetinib + AZD7762 (first compound 0.2 µM) and in the experiment with Selumetinib + AZD7762 (first compound 0.6325 µM) were 0.425, 0.502 and 0.243, respectively.
As for NCI-H23, the relative viability in the experiment with Venetoclax + Bortezomib (first compound 0.01 µM) was determined as 0.95; in the experiment with Venetoclax + Bortezomib (first compound 0.03162 µM), 0.952; in the experiment with Venetoclax + Bortezomib (first compound 0.1 µM), 1.06; in the experiment with Venetoclax + Bortezomib (first compound 0.3162 µM), 1.07; with Venetoclax + Bortezomib (first compound 1 µM) it was 0.9; with Venetoclax + Crizotinib (first compound 0.01 µM), 0.488. The relative viability with Venetoclax + Crizotinib (first compound 0.03162 µM) worked out at 0.491; with Venetoclax + Crizotinib (first compound 0.1 µM), 0.353; with Venetoclax + Crizotinib (first compound 0.3162 µM), 0.507; in the experiment with Venetoclax + Crizotinib (first compound 1 µM), 0.394; in the experiment with Selumetinib + Bortezomib (first compound 0.02 µM), 1.34; with Selumetinib + Bortezomib (first compound 0.06325 µM), 0.967. The relative viability was determined as 0.721 with Selumetinib + Bortezomib (first compound 0.2 µM); 0.965 in the experiment with Selumetinib + Bortezomib (first compound 0.6325 µM); 0.265 in the experiment with Selumetinib + AZD7762 (first compound 0.02 µM); 0.315 with Selumetinib + AZD7762 (first compound 0.06325 µM); 0.222 with Selumetinib + AZD7762 (first compound 0.2 µM); 0.195 in the experiment with Selumetinib + AZD7762 (first compound 0.6325 µM).
Turning to NCI-H441, the relative viability with Venetoclax + Bortezomib (first compound 0.01 µM) was 0.651; in the experiment with Venetoclax + Bortezomib (first compound 0.03162 µM), 0.91; with Venetoclax + Bortezomib (first compound 0.1 µM) it was 0.532; in the experiment with Venetoclax + Bortezomib (first compound 0.3162 µM), 0.451; with Venetoclax + Bortezomib (first compound 1 µM) it was 0.476; with Venetoclax + Crizotinib (first compound 0.01 µM), 0.845. Moreover, the relative viability with Venetoclax + Crizotinib (first compound 0.03162 µM) was found to be 0.976; with Venetoclax + Crizotinib (first compound 0.1 µM), 0.745; with Venetoclax + Crizotinib (first compound 0.3162 µM) it was 0.679; with Venetoclax + Crizotinib (first compound 1 µM), 0.71; with Selumetinib + Bortezomib (first compound 0.02 µM), 0.658; in the experiment with Selumetinib + Bortezomib (first compound 0.06325 µM), 0.345. Besides, the relative viability with Selumetinib + Bortezomib (first compound 0.2 µM) stood at 0.544; with Selumetinib + Bortezomib (first compound 0.6325 µM), 0.506; in the experiment with Selumetinib + AZD7762 (first compound 0.02 µM) it was 1.07; with Selumetinib + AZD7762 (first compound 0.06325 µM) it was 0.974; in the experiment with Selumetinib + AZD7762 (first compound 0.2 µM) it was 1.01; in the experiment with Selumetinib + AZD7762 (first compound 0.6325 µM) it was 0.69.
